Entries after “also recorded” stand apart in the source; their conditions may differ.
Legend:
[1] = system: TGFα and HB-EGF; assay: Immunoblot of TGFα and HB-EGF in MCF-10A-B7 cells; type: cell-based, human; settings: 0.1 μM AG1478, 24 hours
[2] = system: MDCK-B7 cells; assay: Matrigel invasion assay, pooled MDCK-B7 cells; type: cell-based, canine; settings: Su5402 40 μmol/L; for invasive phenotype / invasive ability of MDCK-B7 cells: 36 hours, Bay43-9006 4 μmol/L, U0126 10 μmol/L, either inhibitor alone or in combination
Experimental: (§1) Matrigel invasion assay. Into the Biocoat Matrigel invasion chambers (BD Biosciences) were seeded 4×10^4 cells in 2% FBS medium, and in the lower wells 10% FBS was added as the chemoattractant. After 36 hours of incubation, the filters were stained with crystal violet, and the number of cells that had penetrated through the filter was counted under ×20 magnification (10 randomly selected high-power fields). For inhibition of invasion assays, the FGF receptor inhibitor Su5402 (40 μmol/L), the MAPK/extracellular signal-regulated kinase kinase (MEK) inhibitor U0126 (10 μmol/L), and the Raf inhibitor Bay43-9006 (4 μmol/L; Calbiochem, San Diego, Calif.) were added to the medium in the top chamber at the final concentrations indicated. Ras and RhoA activation assay. Cell lysates were incubated with glutathione S-transferase (GST)-Raf-1 Ras binding domain or GST-Rhotekin RhoA binding domain agarose beads (Upstate, Charlottesville, Va.). GTP-bound Ras or RhoA that precipitated with the beads were detected by SDS-PAGE and immunoblotting with anti-Ras antibody (Santa Cruz Biotechnology) or anti-RhoA antibody (Upstate).

[3] = system: Ras; assay: Ras activation assay, MDCK-B7 cells; type: cell-based, canine
Experimental: as §1

[4] = system: MCF-7-TMR cells; assay: Colony formation and ERE-Luc activity, MCF-7-TMR cells; type: cell-based, human
[5] = system: Her2/Hoxb7 transgenic mouse mammary tumor cells; assay: Sensitivity to anti-ER drugs, Her2/Hoxb7 transgenic mouse mammary tumor cells; type: cell-based
[6] = system: EGFR, HER2, ERα and HOXB7; assay: Immunoblot of EGFR, HER2, ERα, HOXB7 in long-term tamoxifen treated MCF-7 (MCF-7-TMR) cells; type: cell-based, human
[7] = system: Her2 positive transgenic mammary tumor cells; assay: Sensitivity to anti-ER drugs, Her2 positive transgenic mammary tumor cells; type: cell-based, mouse; settings: cells do not express ER
[8] = system: EGFR/HER2 and ERα signaling; assay: Immunoblot of EGFR/HER2, MAPK, ERα signaling in MCF-7-B7 cells; type: cell-based, human
[9] = system: MCF-7-B7 cells; assay: Xenograft of MCF-7-B7 cells in athymic mice; type: in vivo; settings: absence of exogenous estrogen supplement
Experimental: 3×10^6 cells of MCF-7-vec or MCF-7-B7 were suspended in 100 μl PBS/Matrigel (1:1) and injected s.c into the female 3- to 4-week-old BALB/c nu/nu athymic mice (Harlan, Sprague Dawley, Madison, Wis.), which simultaneously received a 60-day slow release pellet containing 0.72 mg of 17β-estradiol and/or 5 mg tamoxifen (Innovative Research of America, Southfield, Mich.). Fulvestrant was dissolved in 100% ethanol and diluted in sesame oil; 5 mg was injected s.c. twice a week^20. Animals were observed once a week. At necropsy, primary tumors, liver, lung and spleen were evaluated for the presence of macroscopic tumors. Tissue samples of the primary tumor and organs were fixed in 4% paraformaldehyde and stained with H&E to assess histomorphology.

[10] = system: LTED cells; settings: Martin La., 2005; cited from earlier work
[11] = system: MCF-7-B7 cells; assay: Soft agar colony formation, MCF-7-B7 cells; type: cell-based, human
[12] = in the clinic; cited from earlier work
[13] = system: BT474 cells; assay: Soft agar colony formation, BT474 cells; type: cell-based, human; settings: 1 μM gefitinib and 1 μM tamoxifen
[14] = system: ERE-luc reporter; assay: ERE-tk-Luc reporter assay, MCF-7-B7 cells; type: cell-based, human; settings: 100 nM tamoxifen, 10 nM E2, 24 h
Experimental: Transient transfection was performed with the respective promoter-luciferase constructs. Results were normalized to the level of B-galactosidase activity in the samples. The EGFR promoter reporter plasmids were a kind gift of Dr. Alfred C. Johnson (Bethesda, Md.). ERE-tk-LUC was a generous gift from Dr. Elaine Alarid (Madison, Wis.).

[15] = system: EGFR/HER2 and ERα signaling; assay: Immunoblot of EGFR/HER2, MAPK, ERα signaling in MCF-7-vec cells; type: cell-based, human; settings: 1 μM tamoxifen, estrogen deprived medium, 48 hours
[16] = system: HOXB7, EGFR and HER2; assay: HOXB7, EGFR, HER2 expression in T47D cells upon tamoxifen; type: cell-based, human
[17] = system: HOXB7 promoter region; assay: CHIP analysis of T47D cells, HOXB7 promoter region; type: cell-based, human; settings: 1 μM tamoxifen, 45 min
[18] = MCF-7 cells, 0.1 μM tamoxifen over time (0, 2, 4, 6 months)
[19] = MCF-7 cells, 1 μM or 0.1 μM tamoxifen for at least 6 months

With `COc1cc2ncnc(Nc3cccc(Cl)c3)c2cc1OC` [AG1478] the “elevated expression of TGFα and HB-EGF” value [1] was “significantly abrogated”.
With `CNC(=O)c1cc(Oc2ccc(NC(=O)Nc3ccc(Cl)c(C(F)(F)F)c3)cc2)ccn1` [Bay43-9006] the “invasive phenotype / invasive ability of MDCK-B7 cells” value (“invasive phenotype / invasive ability” for short) [2] was “complete suppression” and the “invasive phenotype / invasive ability” value ([2]; listed as BAY 43-9006) was “block”.
In the case of `Cc1c[nH]c(/C=C2\C(=O)Nc3ccccc32)c1CCC(=O)O` [Su5402], the “invasive phenotype / invasive ability” value [2] is reported as “reduce”, the “inhibition of invasion ability of MDCK-B7 cell” value [2] is reported as roughly 80% and the “active form Ras (Ras-GTP form)” value [3] is reported as “attenuate”.
In the case of `N#CC(=C(/N)Sc1ccccc1N)/C(C#N)=C(\N)Sc1ccccc1N` [U0126], the “invasive phenotype / invasive ability” value [2] is reported as “complete suppression; also recorded: block”.
With `C[C@]12CC[C@@H]3c4ccc(O)cc4C[C@@H](CCCCCCCCC[S+]([O-])CCCC(F)(F)C(F)(F)F)[C@H]3[C@@H]1CC[C@@H]2O` (stereo partly shown) [fulvestrant] the “sensitivity to fulvestrant treatment in vitro” value ([4]; MCF-7-TMR, 1 μM Fulvestrant) was “remained sensitive”, the response to treatment [5] was “strongly respond” and the “expression of EGFR and HER2” value ([6]; MCF-7-TMR cells, 1 μM fulvestrant, 24 h) was “significantly reduced”. For the same compound, the HOXB7 levels ([6]; MCF-7-TMR cells, 1 μM fulvestrant, 24 h, vs vehicle) was “lower”, the response to treatment [7] was “did not respond” and the “levels of the autocrine/paracrine EGFR ligands (Amphiregulin and TGFα)” value ([8]; 1 μM fulvestrant, 24 h) was “significant reduction”. The “HOXB7 overexpression-related increases in EGFR and p44/42 MAPK activity” value ([8]; fulvestrant treatment) was “reduced”, the “tumor formation in vivo” value ([9]; fulvestrant 10 mg/week) was “reduced” and the “sensitivity of LTED cells” value [10] was “sensitive”. The “sensitivity to fulvestrant treatment in vitro” value ([11]; MCF-7-B7, 1 μM Fulvestrant) was “remained sensitive”, the “HOXB7-promoted colony formation in vitro” value ([11]; in a dose-dependent manner) was “reduced” and the “tamoxifen-relapsed / tamoxifen-resistant patients who respond” value [12] was “nearly two-thirds”.
With `COc1cc2ncnc(Nc3ccc(F)c(Cl)c3)c2cc1OCCCN1CCOCC1` [gefitinib] the “effect on tamoxifen action in BT474 cells” value [13] was “dramatically converted tamoxifen from a partial agonist to a potent antagonist” and the “sensitivity of the cells to tamoxifen treatment” value ([11]; 1 μM tamoxifen in combination with 1 μM gefitinib) was “significantly re-sensitized”.
With `CC/C(=C(\c1ccccc1)c1ccc(OCCN(C)C)cc1)c1ccccc1` [tamoxifen] the “resistance to tamoxifen treatment (colony formation and ERE-Luc activity)” value ([4]; 100 nM tamoxifen) was “significant resistance”, the response to treatment [5] was “not responding” and the “attenuation of estrogen-stimulated ERE-luc reporter activity” value [14] was “inability”. The “expression of EGFR/HER2 and ERα” value [6, 18] was “concomitant increases”, the “levels of expression of HOXB7” value [6, 18] was “progressively increasing levels” and the HOXB7 expression level [6, 19] was “potently elevated”. The “expression of EGFR, HER2 and ERα” value [6, 19] was “elevated expression”, the “increase of active form of HER2” value [15] was “about 1.5 fold” and the “levels of the active form of EGFR” value [15] was “reduction”. For the same compound, the response to treatment [7] was “did not respond”, the “effect on the expression of Cyclin D1 and Bcl-2” value ([8]; 1 μM tamoxifen, 48 hours) was “potent estrogen-like agonistic effect” and the “p44/42 MAPK activity and phosphorylation of ERα at serine 118” value ([8]; 1 μM tamoxifen, 48 hours) was “increased”. The “active forms of EGFR and HER2” value ([8]; 1 μM tamoxifen, estrogen deprived medium, 48 hours) was “significantly higher level”, the “activation of p44 MAPK and ER phosphorylation at Ser 118 site” value ([8]; 1 μM tamoxifen, short period, MCF-7-B7) was “potently stimulates” and the “levels of active forms of EGFR and HER2” value ([8]; 1 μM tamoxifen, short period, estrogen deprived) was “elevated levels”. For the same compound, the “effect on established tumors of MCF-7-B7 cells in nude mice” value ([9]; tamoxifen 83.3 μg/day) was “no inhibitory effect”, the “expression of HOXB7” value ([16]; 1 μM tamoxifen, short-term) was “increased expression” and the “expression levels of EGFR and HER2” value ([16]; tamoxifen) was “induced”. For the same compound, the “binding of ERα to HOXB7 promoter region” value [17] was “promoted binding”, the “sensitivity of LTED cells” value [10] was “refractory” and the “growth (colonies in soft agar)” value ([11]; estrogen-deprived conditions, tamoxifen 1 μM) was “enhanced”. For the same compound, the “sensitivity to the inhibitory effects of tamoxifen in culture” value ([11]; tamoxifen 1 μM, complete medium) was “loss of sensitivity”.
